# Read-outs that look alike come from different tables or passages of the source.
# How the values were obtained:
# [1] = Plasma pharmacokinetics of 2,4-DNP, i.v. and oral; format: in vivo, Sprague-Dawley male rats
# Protocol: All procedures that involved the use of rats were conducted in accordance with the guidelines set forth by the University of Arkansas for Medical Sciences (UAMS) Institutional Animal Care and Use Committee established by the National Institutes of Health's Guide for the Care and Use of Laboratory Animals (1996). Male Sprague-Dawley rats weighing 250-300 grams were housed three per cage with ad libitum access to food and water in the Division of Laboratory Animal Resources, UAMS. Rats were anesthetized with isofluorane (2-5%)/oxygen (1.5-2.0 L/min) and surgically implanted with cannulae in the jugular (i.v. dosing) and femoral (blood sampling) veins. […] Following appropriate evidence of successful recovery from surgery, IV or oral dosing was performed and blood samples (0.15 mL) were collected at 0, 5, 15, 30, 45, 60, 120, 240 and 480 min. Plasma samples were prepared and analysis was run using a LC/MS/MS spectrometry.
# 2,4-DNP was dissolved in a phosphate-saline buffer solution, pH 7.4 containing 5% DMSO and 20% PEG-400 and filtered through a 0.2-μm filter. For the oral route, rats were gavaged with 5 mg/kg in a total volume of 8 mL/kg from a stock solution containing 0.625/mL of 2,4-DNP. For the i.v. injection, a total volume of 0.8 mL/kg was used at a dose of 1 mg/kg from a stock solution containing 1.25 mg/mL.
# Jugular and femoral vein-catheterized Sprague-Dawley male rats (weights 250-300 g) were treated with 2,4-DNP at a single oral dose of 5 mg/kg (n=4) or a single i.v. dose of 1 mg/kg (n=3). For each i.v. and oral experiment, blood samples (0.15 mL) were collected at 0, 5, 15, 30, 45, 60, 120, 240 and 480 min. The withdrawn blood was replaced with heparinized saline (0.15 mL). Blood samples were centrifuged at 10,000 rpm for 10 min at room temperature, and plasma samples were prepared and analysis was run using a sensitive LC/MS/MS spectrometry method (see below).
# To isolate the analytes from rat plasma, 50 μL of control or treated plasma fortified with 10 μL of 2,4-DNP-d3 (10 μg/mL) as an internal standard to which 0.3 mL of methanol followed by 0.3 mL of acetonitrile was added. The mixture was vortex-mixed for 30 s and centrifuged for 10 min at 10,000 rpm at room temperature. The supernatant was transferred into 5 mL glass tubes and evaporated to dryness at 37° C. under nitrogen gas. The pellet was reconstituted with 50 μL of acetonitrile, vortex-mixed for 30 sec, followed by sonication for 1 min. Following centrifugation at 1000 rpm for 10 min at room temperature, 5 μL of the supernatant was then injected onto the column, and analytes were quantified by a LC/MS/MS spectrometry.
# 1—Plasma concentrations of 2,4-DNP after a single i.v. injection of 2,4-DNP of 1 mg/kg or 5 mg/kg oral administration; 2—Plasma concentrations of II-38 and 2,4-DNP-released from II-38 after an i.v. injection 1.6 mg/kg of II-38 eq. to 1 mg/kg of 2,4-DNP or an oral dose of 8, 40 and 80 mg/kg of II-38 eq. to 5, 25 and 50 mg/kg of 2,4-DNP, respectively. The mass spectrometer was an Agilent quadrupole mass spectrometer operated in the multiple reaction monitoring (MRM) mode. 2,4-DNP-d3 was used as an internal standard. 2,4-DNP, II-38 and 2,4-DNP-d3 were separated using an Alltima C18 column, 5 μm, 3.2×150 mm (Grace Discovery Sciences, IL, USA) equipped with a guard column: Alltima C18, 5 μm, 4.6×7.5 mm (Grace Discovery Sciences, IL, USA). The mobile phase consists of water with 0.005% formic acid as solvent A and acetonitrile with 0.005% formic acid as solvent B. For analysis of 2,4-DNP, II-38 and 2,4-DNP-d3 compounds, the separation was achieved using a gradient of 10 to 90% solvent B in 3.5 min, which was maintained at 90% B for the next 3.30 min and then equilibrated back to the initial conditions over 3.20 min. The flow rate was 0.8 mL/min with a column temperature of 30° C. The sample injection volume was 5 μL. […]
# [2] = Stability in human plasma; format: in vitro ADME; conditions: 80% human plasma, 37° C.
# Protocol: Plasma: Stability in rat and human plasma (37° C.)
# HPLC analysis was carried out on an Agilent 1200 Infinity Series Quatpump, equipped with a photodiode array detector and a computer integrating apparatus. An Inertsil ODS-3 column, C18, 5 μm, 4.6×50 mm (GL Science Inc. Japan) protected with a guard column: Alltima C18, 5 μm, 4.6×7.5 mm (Grace Discovery Sciences, IL, USA) was used as the stationary phase. An isocratic method with a mobile phase consisting of water/acetonitrile (70:30) containing 0.05% formic acid in each was used. A flow rate of 0.9 mL/min was used and detection was carried out at a UV wavelength of 250 nm.
# Formulation of II-38 in human plasma: to prepare 1 mg/mL of II-38, 2.3 mg of II-38 was formulated in DMSO (5%) and added slowly and gradually to a total volume of 2.185 mL of premixed human plasma (80%+PBS 15%, see Table 6) in a Franz cell diffusion chamber preheated to 37° C. The solution was mixed for a min every half an hour using magnetic stirrer. Samples of 20 μL (20 μg/mL of II-38) were collected at 0, 0.5, 1, 2, 4, 6 and 8 h. Each sample was mixed with acetonitrile QS to 1 mL, vortex-mixed for 30 sec and centrifuged at 10,000 rpm at room temp. A volume of 10 μL of the supernatant was injected into the HPLC spectrometer.
# [3] = 2,4-DNP single oral dose 5 mg/kg, n = 4, 5 mg/kg
# [4] = 2,4-DNP single oral dose 5 mg/kg, n = 4, listed as DNP, 5 mg/kg
Compound,"AUC [1, 3] [µg·min/mL]","t1/2 [1, 3] [h]","AUC [1, 4] [µg·min/mL]","Cmax [1, 4] [µg/mL]","Tmax [1, 4] [h]","t1/2 [1, 4] [h]","half-life ([1]; male, Sprague-Dawley, rat, plasma, iv, 1 mg/kg, 2,4-DNP single i.v. dose 1 mg/kg, n = 3) [h]","Cmax ([1]; male, Sprague-Dawley, rat, plasma, iv, 1 mg/kg, 2,4-DNP single i.v. dose 1 mg/kg, n = 3, read-out: Cmax) [µg/mL]","clearance ([1]; male, Sprague-Dawley, rat, plasma, iv, 2,4-DNP single i.v. dose 1 mg/kg, n = 3) [mL/min/kg]","AUC ([1]; male, Sprague-Dawley, rat, plasma, iv, 2,4-DNP single i.v. dose 1 mg/kg, n = 3, read-out: AUC (converted)) [µg·min/mL]","Vd ([1]; male, Sprague-Dawley, rat, plasma, iv, 2,4-DNP single i.v. dose 1 mg/kg, n = 3, read-out: Vss) [L/kg]","half-life ([1]; male, Sprague-Dawley, rat, plasma, po, 5 mg/kg, 2,4-DNP single oral dose 5 mg/kg, n = 4) [h]","Cmax ([1]; male, Sprague-Dawley, rat, plasma, po, 5 mg/kg, 2,4-DNP single oral dose 5 mg/kg, n = 4, read-out: Cmax) [µg/mL]","Tmax ([1]; male, Sprague-Dawley, rat, plasma, po, 5 mg/kg, 2,4-DNP single oral dose 5 mg/kg, n = 4, read-out: tmax (converted)) [h]","bioavailability ([1]; male, Sprague-Dawley, rat, plasma, 2,4-DNP single oral dose 5 mg/kg, n = 4) [%]","AUC ([1]; male, Sprague-Dawley, rat, plasma, 2,4-DNP single oral dose 5 mg/kg, n = 4, read-out: AUC (converted)) [µg·min/mL]",hydrolysis in human plasma [2]
"O=[N+]([O-])c1ccc(O)c([N+](=O)[O-])c1 [2,4-DNP, 2,4-dinitrophenol]",13288.0 ± 1634.1,2.272 ± 0.182,13288,50,0.633,2.27,1.5 ± 0.165,11.5 ± 6.2,1.2 ± 0.6,1350,0.161 ± 0.135,2.27 ± 0.182,50.1 ± 7.4,0.625,65.8 ± 11.4,13300,–
"O=C(Oc1ccc([N+](=O)[O-])cc1[N+](=O)[O-])N1CCOCC1 [II-38, 2,4-Dinitrophenyl morpholine-4-carboxylate]",–,–,–,–,–,–,–,–,–,–,–,–,–,–,–,–,"cleaved in the plasma to produce 2,4-DNP at a slow rate"

# — patent US11406642B2, “DNP and DNP prodrug treatment of neuromuscular, neurodegenerative, autoimmune, developmental, traumatic brain injury, concussion, dry eye disease, hearing loss and/or metabolic diseases” (priority 2016, dated 2022)
